Reference: US4500526A, “Cephalosporin derivatives” (Bristol-Myers Company, priority 1983, dated 1985)
Values after ≈ are worked out from the molar mass of the structure shown. Read-outs that look alike come from different tables or passages of the source.

Key:
[1] = test system: Penicillinsensitive S. aureus (5 strains); assay: MIC, two-fold serial agar dilution, group (G+)-Ia; type: cell-based; conditions: Staphylococcus aureus, read-out: Geometric Mean of MIC
Experimental: (§1) In the primary evaluation of the compounds of this invention, the Minimum Inhibitory Concentrations (MIC's) of the compounds were determined by the two-fold serial agar dilution method in Mueller-Hinton agar against 32 strains of test organisms in six groups. The sample weights of the test compounds were adjusted according to the purity of each compound, so as to give a more accurate measure of the MIC's.
(G+)Ia: Penicillinsensitive S. aureus (5 strains)

[2] = test system: Ps. aeruginosa (6 strains); assay: MIC, two-fold serial agar dilution, group (G-)-III; type: cell-based; conditions: Pseudomonas aeruginosa, read-out: Geometric Mean of MIC
Experimental: as §1
(G-)III: Ps. aeruginosa (6 strains)

[3] = test system: M. morganii (1 strain), Ent. cloacae (2 strains) and Ser. marcescens (2 strains); assay: MIC, two-fold serial agar dilution, group (G-)-II; type: cell-based; conditions: read-out: Geometric Mean of MIC
Experimental: as §1
(G-)II: M. morganii (1 strain), Ent. cloacae (2 strains) and Ser.

N. meningitidis (5) = assay: In vitro activity against fastidious bacteria, two-fold serial agar dilution; type: cell-based; conditions: Neisseria meningitidis, read-out: Geometric Mean of MIC
Experimental: (§2) The in vitro activity of some of the preferred compounds against 30 strains of fastidious bacteria was determined by the two-fold serial agar dilution method in Gonococcus agar (GC agar), and the results are shown in Table 3.

[4] = test system: H. influenzae (7) (ampicillin sensitive); assay: as above; type: cell-based; conditions: Haemophilus influenzae, GC agar, 7 strains, read-out: Geometric Mean of MIC
Experimental: as §2

[5] = test system: H. influenzae (3) (ampicillin resistant); assay: as above; type: cell-based; conditions: Haemophilus influenzae, read-out: Geometric Mean of MIC
Experimental: as §2

S. pneumoniae (5) = assay: as above; type: cell-based; conditions: Streptococcus pneumoniae; GC agar; read-out: Geometric Mean of MIC
Experimental: as §2

S. pyogenes (5 strains) = assay: as above; type: cell-based; conditions: Streptococcus pyogenes; GC agar; read-out: Geometric Mean of MIC
Experimental: as §2

N. gonorrhoeae (5) = assay: as above; type: cell-based; conditions: Neisseria gonorrhoeae, read-out: Geometric Mean of MIC
Experimental: as §2

S. aureus Smith = assay: Median protective dose in infected mice; type: in vivo; conditions: Staphylococcus aureus, im, immediately after intraperitoneal challenge, read-out: PD50
Experimental: (§3) The median protective dose (PD50) of some of the preferred compounds against various microorganisms was determined in mice by intramuscular administration of the test compound immediately after an intraperitoneal bacterial challenge.

E. coli Juhl = assay: Median protective dose in infected mice; type: in vivo; conditions: Escherichia coli, im, immediately after intraperitoneal challenge, read-out: PD50
Experimental: as §3

P. aeruginosa A9843 = assay: Median protective dose in infected mice; type: in vivo; conditions: Pseudomonas aeruginosa, im, immediately after intraperitoneal challenge, read-out: PD50
Experimental: as §3

[6] = test system: Cephalothinresistant E. coli (3 strains) and Kl. pneumoniae (3 strains); assay: MIC, two-fold serial agar dilution, group (G-)-Ib; type: cell-based; conditions: Escherichia coli, read-out: Geometric Mean of MIC
Experimental: as §1
(G-)Ib: Cephalothinresistant E. coli (3 strains) and Kl. pneumoniae (3

[7] = test system: Cephalothinsensitive E. coli (2 strains), Kl. pneumoniae (1 strain) and Pr. mirabilis (2 strains); assay: MIC, two-fold serial agar dilution, group (G-)-Ia; type: cell-based; conditions: 5 strains, Mueller-Hinton agar, read-out: Geometric Mean of MIC
Experimental: as §1
(G-)Ia: Cephalothinsensitive E. coli (2 strains), Kl. pneumoniae (1
strain) and Pr. mirabilis (2 strains)

[8] = Mouse blood levels after single intramuscular injection; type: in vivo, mice; conditions: in vivo, im, 20 mg/kg
Experimental: The absorption of some of the preferred compounds were determined in mice following a single intramuscular injection of the test compound (dissolved in 0.1M phosphate buffer; pH 7) at a dosage of 20 mg/kg. Blood samples were collected from the orbital sinuses into heparinized capillary tubes and assayed in Nutrient Agar (pH 6.6) using E. coli Ess-22-31 as the test organism. The blood levels at various time intervals, the half-life values (t1/2) and the areas under the curve (AUC) are shown in Table 2.

[9] = test system: Penicillinresistant S. aureus (5 strains); assay: MIC, two-fold serial agar dilution, group (G+)-Ib; type: cell-based; conditions: Staphylococcus aureus, read-out: Geometric Mean of MIC
Experimental: as §1
(G+)Ib: Penicillinresistant S. aureus (5 strains)

[10] = (G+)-Ia, 5 strains, Mueller-Hinton agar
[11] = (G-)-II, 5 strains, Mueller-Hinton agar
[12] = (G+)-Ib, 5 strains, Mueller-Hinton agar
[13] = (G-)-III, 6 strains, Mueller-Hinton agar

Row | Structure (SMILES) | MIC [1, 10] [µg/mL] | MIC [3, 11] [µg/mL] | ED50 (S. aureus Smith) [mg/kg] | ED50 (E. coli Juhl) [mg/kg] | ED50 (P. aeruginosa A9843) [mg/kg] | MIC [6] [µg/mL] | MIC [7] [µg/mL] | AUC [8] [ng·h/mL] | concentration at 10 min [8] [ng/mL] | concentration at 20 min [8] [ng/mL] | concentration at 0.5 h [8] [ng/mL] | concentration at 40 min [8] [ng/mL] | concentration at 50 min [8] [ng/mL] | concentration at 1 h [8] [ng/mL] | concentration at 1.5 h [8] [ng/mL] | concentration at 2 h [8] [ng/mL] | half-life [8] [min] | MIC [9, 12] [µg/mL] | MIC [2, 13] [µg/mL] | MIC [3] [µg/mL] | also measured
1 | Nc1nc(/C(=N/OC2(C(=O)O)CCC2)C(=O)NC2C(=O)N3C(C(=O)[O-])=C(C[n+]4ccc5scnc5c4)CS[C@H]23)cs1 (stereo partly drawn) [Ie, 7-[(Z)-2-(2-Aminothiazol-4-yl)-2-(1-carboxycyclobut-1-oxyimino)-acetamido]-3-{(5-thiazolo[4,5-c]pyridinio)methyl}-3-cephem-4-carboxylate] | 2.2 (≈ 3.57 µM) | 0.34 (≈ 0.552 µM) | 3.1 | 0.08 | 1.8 | 0.5 (≈ 0.812 µM) | 0.023 (≈ 0.0374 µM) | 7900 | 13000 | 12000 | 7500 | 4300 | 3000 | 2600 | 510 | 150 | 16 | 4.4 (≈ 7.15 µM) | – | – | MIC [2]: 1.3 µg/mL (≈ 2.11 µM); MIC (N. meningitidis (5)): 0.1 µg/mL (≈ 0.162 µM); MIC [4]: 0.1 µg/mL (≈ 0.162 µM); MIC [5]: 0.1 µg/mL (≈ 0.162 µM); MIC (S. pneumoniae (5)): 0.2 µg/mL (≈ 0.325 µM); MIC (S. pyogenes (5 strains)): 0.2 µg/mL (≈ 0.325 µM); MIC (N. gonorrhoeae (5)): 0.1 µg/mL (≈ 0.162 µM)
2 | CO/N=C(\C(=O)NC1C(=O)N2C(C(=O)[O-])=C(C[n+]3ccc4sc(NC(=O)OC)nc4c3)CS[C@H]12)c1csc(N)n1 (stereo partly drawn) [Is, 7-[(Z)-2-(2-Aminothiazol-4-yl)-2-methoxyiminoacetamido]-3-(2-methoxycarbonylamino-5-thiazolo[4,5-c]pyridinio)methyl-3-cephem-4-carboxylate] | 0.46 (≈ 0.761 µM) | – | 1.2 | 0.018 | 10 | 0.69 (≈ 1.14 µM) | 0.038 (≈ 0.0628 µM) | 13000 | 19000 | 18000 | 14000 | 6700 | 4600 | 4600 | 2200 | 1100 | 26 | 0.8 (≈ 1.32 µM) | 14 (≈ 23.2 µM) | 0.6 (≈ 0.992 µM) | –
3 | CO/N=C(\C(=O)NC1C(=O)N2C(C(=O)[O-])=C(C[n+]3ccc4sc(NC(=O)N5CCCC5)nc4c3)CS[C@H]12)c1csc(N)n1 (stereo partly drawn) [It, 7-[(Z)-2-(2-Aminothiazol-4-yl)-2-methoxyiminoacetamido]-3-[2-(pyrrolidin-1-ylcarbonylamino)-5-thiazolo[4,5-c]pyridinio]methyl-3-cephem-4-carboxylate] | 0.53 (≈ 0.823 µM) | 2.8 (≈ 4.35 µM) | 1.9 | 0.2 | > 25 | 0.92 (≈ 1.43 µM) | 0.3 (≈ 0.466 µM) | 13000 | 19000 | 18000 | 11000 | 7800 | 6600 | 5400 | 2100 | 890 | 24 | – | 34 (≈ 52.8 µM) | – | MIC [9]: 1.6 µg/mL (≈ 2.49 µM)
4 | CO/N=C(\C(=O)NC1C(=O)N2C(C(=O)[O-])=C(C[n+]3ccc4sc(N(C)C)nc4c3)CS[C@H]12)c1csc(N)n1 (stereo partly drawn) [Iu, 7-[(Z)-2-(2-Aminothiazol-4-yl)-2-methoxyiminoacetamido]-3-(2-dimethylamino-5-thiazolo[4,5-c]pyridinio)methyl-3-cephem-4-carboxylate] | 0.46 (≈ 0.8 µM) | – | 0.48 | 0.013 | 4.6 | 0.11 (≈ 0.191 µM) | 0.012 (≈ 0.0209 µM) | 9800 | 18000 | 13000 | 9600 | 5500 | 3400 | 2600 | 1000 | 340 | 19 | 0.8 (≈ 1.39 µM) | 6.3 (≈ 11 µM) | 0.23 (≈ 0.4 µM) | –
5 | CO/N=C(\C(=O)NC1C(=O)N2C(C(=O)[O-])=C(C[n+]3ccc4sc(C(=O)O)nc4c3)CS[C@H]12)c1csc(N)n1 (stereo partly drawn) [Iv, 7-[(Z)-2-(2-Aminothiazol-4-yl)-2-methoxyiminoacetamido]-3-(2-carboxy-5-thiazolo[4,5-c]pyridinio)methyl-3-cephem-4-carboxylate] | – | 0.69 (≈ 1.2 µM) | 2.6 | 0.024 | 21 | 1.2 (≈ 2.08 µM) | 0.014 (≈ 0.0243 µM) | 10000 | 17000 | 16000 | 10000 | 5900 | 4300 | 3000 | 1200 | < 200 | 19 | 3.1 (≈ 5.39 µM) | 5.7 (≈ 9.9 µM) | – | MIC [1]: 1.6 µg/mL (≈ 2.78 µM)
6 | CO/N=C(\C(=O)NC1C(=O)N2C(C(=O)[O-])=C(C[n+]3ccc4sc(C=O)nc4c3)CSC12)c1csc(N)n1 (stereo not drawn) [Iw, 7-[(Z)-2-(2-Aminothiazol-4-yl)-2-methoxyiminoacetamido]-3-(2-formylthiazolo[4,5-c]pyridinio)methyl-3-cephem-4-carboxylate] | 0.53 (≈ 0.947 µM) | – | 1.3 | 0.015 | 4.7 | 0.17 (≈ 0.304 µM) | 0.016 (≈ 0.0286 µM) | 11000 | 20000 | 19000 | 8900 | 6600 | 3900 | 2000 | 1000 | 480 | 19 | – | 1.7 (≈ 3.04 µM) | 0.2 (≈ 0.357 µM) | MIC [9]: 1.6 µg/mL (≈ 2.86 µM)
